US10858342B2, “Bicyclic imidazole derivatives useful for the treatment of renal diseases, cardiovascular diseases and fibrotic diseases” (Boehringer Ingelheim International GmbH, priority 2016, dated 2020)
Like-named read-outs stand apart in the source and are kept apart here.

Tests used:
Type in all cases: biochemical, cynomolgus monkey
[1] = biological target: cortisol synthase (CYP11B1) (Macaca fascicularis, UniProt A0A2K5ULY1); test: Inhibition of cortisol synthesis (cynomolgus adrenal mitochondria, cortisol by mass spectrometry)
Procedure: The aldosterone synthase and cortisol synthase inhibition assays employ cynomolgus adrenal gland mitochondria as the source of aldosterone synthase (CYP11B2) and cortisol synthase (CYP11B1). Mitochondria are prepared from frozen cynomolgus monkey adrenal glands according to Method A described in by J. D. McGarry et al. (Biochem. J., 1983, 214, 21-28), with a final resuspension in the AT buffer described in R. Yamaguchi et al. (Cell Death and Differentiation, 2007, 14, 616-624), frozen as aliquots in liquid nitrogen and stored at −80° C. until use. One unit of CYP11B2 and CYP11B1 activity in these preparations is defined as the amount of enzyme that generates 1 pmol of product in one hour under the conditions described.
(§1) Assays are performed in 96-well format in a final volume of 60 microL/well, containing 100 mM potassium phosphate, pH 7.4, 1% (v/v) DMSO, and additionally, 2 μM of corticosterone and 50 units of CYP11B2 activity. Reactions are started by the addition of NADPH to 1 mM and allowed to proceed for 90 minutes at 37° C. Reactions are terminated by the addition of 60 μL of MeCN containing an internal standard for mass spectrometry. One hundred microliters are then transferred to a glass filter plate and centrifuged at 570×g for 5 minutes and the filtrate is collected. Reaction product aldosterone is quantified by mass spectrometry. To determine the assay blank value (0% activity), NADPH is omitted from some reactions.
Dose dependent inhibition is quantified by the inclusion of compound at various concentrations. Maximum activity (100%) is defined by reactions containing NADPH, but without compound. Activities at each concentration are expressed as a percentage of the maximum activity (y-axis) and plotted against concentration of compound (x-axis) and the concentration corresponding to 50% activity (IC50) determined using the XLFit curve-fitting program using a 4-parameter logistic model.
Assays are performed as for aldosterone synthase except for the use of 150 units of CYP11B1, 11-deoxycortisol as substrate and cortisol measured as product.

[2] = tested on: aldosterone synthase (CYP11B2); test: Inhibition of aldosterone synthase (cynomolgus adrenal mitochondria, aldosterone by mass spectrometry); details: selectivity for aldosterone synthase inhibition over cortisol synthase (CYP11B1) inhibition, fold
Procedure: (§2) The aldosterone synthase and cortisol synthase inhibition assays employ cynomolgus adrenal gland mitochondria as the source of aldosterone synthase (CYP11B2) and cortisol synthase (CYP11B1). […] One unit of CYP11B2 and CYP11B1 activity in these preparations is defined as the amount of enzyme that generates 1 pmol of product in one hour under the conditions described.
(§3) The compounds of the invention may be evaluated for aldosterone synthase inhibition by the following assay:
as §1
(§4) Dose dependent inhibition is quantified by the inclusion of compound at various concentrations. Maximum activity (100%) is defined by reactions containing NADPH, but without compound.

[3] = biological target: aldosterone synthase (CYP11B2) (Macaca fascicularis, UniProt A0A2K5UPL9); test: as above; details: 2 μM corticosterone substrate, 50 units CYP11B2, 90 min, 37° C.; read-out: Aldosterone Inhibition IC50
aldosterone synthase (CYP11B2) (Macaca fascicularis, UniProt A0A2K5UPL9), sequence (A0A2K5UPL9 1-503): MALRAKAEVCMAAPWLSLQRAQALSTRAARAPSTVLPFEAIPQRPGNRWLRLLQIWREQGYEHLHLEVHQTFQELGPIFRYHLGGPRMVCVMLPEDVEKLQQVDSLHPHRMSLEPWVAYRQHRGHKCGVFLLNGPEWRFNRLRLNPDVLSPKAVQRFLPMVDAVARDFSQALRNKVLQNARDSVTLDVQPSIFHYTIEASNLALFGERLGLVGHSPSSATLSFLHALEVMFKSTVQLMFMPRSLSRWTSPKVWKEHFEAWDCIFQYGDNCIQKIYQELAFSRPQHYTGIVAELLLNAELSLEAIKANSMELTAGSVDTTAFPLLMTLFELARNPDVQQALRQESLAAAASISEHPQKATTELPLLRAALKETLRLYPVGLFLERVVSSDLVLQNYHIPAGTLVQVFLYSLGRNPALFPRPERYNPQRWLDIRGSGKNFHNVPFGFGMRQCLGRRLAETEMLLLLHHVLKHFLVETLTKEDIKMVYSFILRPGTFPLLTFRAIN
Procedure: as §2, §3, §1, §4

[4] = 11-deoxycortisol substrate, 150 units CYP11B1; read-out: Cortisol Inhibition IC50
[5] = read-out: Cortisol Inhibition IC50; 11-deoxycortisol substrate, 150 units CYP11B1

SMILES | IC50 [1, 4] | Selectivity [2] | IC50 [3] | IC50 [1, 5]
O=C1CCCc2ncn(-c3ccc4c(c3)OCCCO4)c21 [C-AAJ, 3-(3,4-Dihydro-2H-benzo[b][1,4]dioxepin-7-yl)-3,5,6,7-tetrahydro-benzoimidazol-4-one] | > 30000 nM | 67 | 440 nM | –
N#Cc1ccc(-n2cnc3c2C(=O)CCC3)c(C2CC2)c1 [C-AAK, 3-Cyclopropyl-4-(7-oxo-4,5,6,7-tetrahydro-benzoimidazol-1-yl)-benzonitrile] | 17000 nM | 500 | 34 nM | –
N#Cc1ccc(-n2cnc3c2C(=O)CCC3)cc1 [C-AAL, 4-(7-Oxo-4,5,6,7-tetrahydro-benzoimidazol-1-yl)-benzonitrile] | 4600 nM | 250 | 19 nM | –
Cn1c(=O)oc2cc(-n3cnc4c3C(=O)CCC4)ccc21 [C-AAM, 3-Methyl-6-(7-oxo-4,5,6,7-tetrahydro-benzoimidazol-1-yl)-3H-benzooxazol-2-one] | > 30000 nM | 240 | 120 nM | –
CN1C(=O)COc2cc(-n3cnc4c3C(=O)CCC4)ccc21 [C-AAN, 4-Methyl-7-(7-oxo-4,5,6,7-tetrahydro-benzoimidazol-1-yl)-4H-benzo[1,4]oxazin-3-one] | > 30000 nM | 360 | 84 nM | –
Cc1cc(-n2cnc3c2C(=O)CC2(CCOCC2)C3)ccc1C#N [C-AAO, 2-Methyl-4-(7-oxospiro[4,6-dihydrobenzoimidazole-5,4′-tetrahydropyran]-1-yl)benzonitrile] | 2300 nM | 30 | 77 nM | –
CN1C(=O)CCc2cc(-n3cnc4c3C(=O)CC3(CCOCC3)C4)ccc21 [C-AAP, 3-(1-Methyl-2-oxo-3,4-dihydroquinolin-6-yl)spiro[5,7-dihydrobenzoimidazole-6,4′-tetrahydropyran]-4-one] | > 30000 nM | 65 | 460 nM | –
O=C1CC2(CCOCC2)Cc2ncn(-c3ccc(Cl)cc3)c21 [C-AAR, 3-(4-Chloro-phenyl)-6,6-3-o-tetrahydropyran-3,5,6,7-tetrahydro-benzoimidazol-4-one] | 5000 nM | 73 | 69 nM | –
N#Cc1ccc(-n2cnc3c2C(=O)CC2(CCOCC2)C3)cc1 [C-AAS, 4-(7-Oxospiro[4,6-dihydrobenzimidazole-5,4′-tetrahydropyran]-1-yl)benzonitrile] | 14000 nM | 61 | 240 nM | –
N#Cc1ccc(-n2cnc3c2C(=O)CC2(CCC2)C3)cc1 [C-AAT, 4-(7-Oxospiro[4,6-dihydrobenzimidazole-5,1′-cyclobutan]-1-yl)benzonitrile] | 480 nM | 130 | 3.8 nM | –
Cc1cc(-n2cnc3c2C(=O)CC2(CCC2)C3)ccc1C#N [C-AAU, 2-Methyl-4-(7-oxospiro[4,6-dihydrobenzimidazole-5,1′-cyclobutan]-1-yl)benzonitrile] | 51 nM | 5.0 | 10 nM | –
CN1C(=O)CCc2cc(-n3cnc4c3C(=O)CC3(CCC3)C4)ccc21 [C-AAV, 3-(1-Methyl-2-oxo-3,4-dihydroquinolin-6-yl)spiro[5,7-dihydrobenzimidazole-6,1′-cyclobutane]-4-one] | 14000 nM | 300 | 47 nM | –
N#Cc1ccc(-n2cnc3c2C(=O)CC2(CC2)C3)cc1Cl [C-AAW, 3-(3-Chloro-4-cyano)-6,6-spirocyclopropyl-3,5,6,7-tetrahydrobenzimidazol-4-one] | – | 43 | 5 nM | 220 nM
N#Cc1ccc(-n2cnc3c2C(=O)CC2(CC2)C3)cc1 [C-AAX, 3-(4-Cyanophenyl)-6,6-spirocyclpropyl-3,5,6,7-tetrahydro-benzimidazol-4-one] | 1900 nM | 230 | 8.5 nM | –
O=C1CCCc2ncn(-c3ccc4c(c3)CCCN4)c21 [C-ABB, 3-(1,2,3,4-Tetrahydro-quinolin-6-yl)-3,5,6,7-tetrahydro-benzoimidazol-4-one] | > 30000 nM | 120 | 250 nM | –
CC1(C)CC(=O)c2c(ncn2-c2ccc(F)c(F)c2)C1 [C-ABC, 3-(3,4-Difluoro-phenyl)-6,6-dimethyl-3,5,6,7-tetrahydro-benzimidazol-4-one] | 650 nM | 63 | 10 nM | –
CC1(C)CC(=O)c2c(ncn2-c2ccc(Cl)c(Cl)c2)C1 [C-ABD, 3-(3,4-Dichloro-phenyl)-6,6,-dimethyl-3,5,6,7-tetrahydro-benzoimidazol-4-one] | 370 nM | 120 | 3.1 nM | –
CC1(C)CC(=O)c2c(ncn2-c2ccc(C#N)c(Cl)c2)C1 [C-ABE, 2-Chloro-4-(5,5-dimethyl-7-oxo-4,5,6,7-tetrahydro-benzoimidazol-1-yl)-benzonitrile] | – | 79 | 1.3 nM | 110 nM
CC1(C)CC(=O)c2c(ncn2-c2cccc(Cl)c2Cl)C1 [C-ABF, 3-(2,3-Dichloro-phenyl)-6,6-dimethyl-3,5,6,7-tetrahydro-benzoimidazol-4-one] | 610 nM | 160 | 3.8 nM | –
CC1(C)CC(=O)c2c(ncn2-c2ccc(Cl)cc2Cl)C1 [C-ABG, 3-(2,4-Dichloro-phenyl)-6,6-dimethyl-3,5,6,7-tetrahydro-benzoimidazol-4-one] | 500 nM | 120 | 4.2 nM | –
CC1(C)CC(=O)c2c(ncn2-c2cc(Cl)cc(Cl)c2)C1 [C-ABH, 3-(3,5-Dichloro-phenyl)-6,6-dimethyl-3,5,6,7-tetrahydro-benzoimidazol-4-one] | 5200 nM | 240 | 22 nM | –
CC1(C)CC(=O)c2c(ncn2-c2ccc(F)c(Cl)c2)C1 [C-ABI, 3-(3-Chloro-4-fluoro-phenyl)-6,6-dimethyl-3,5,6,7-tetrahydro-benzoimidazol-4-one] | 910 nM | 190 | 4.8 nM | –
CC(C)Oc1ccc(-n2cnc3c2C(=O)CC(C)(C)C3)cc1Cl [C-ABJ, 3-(3-Chloro-4-isopropoxy-phenyl)-6,6-dimethyl-3,5,6,7-tetrahydro-benzoimidazol-4-one] | 95000 nM | 1300 | 75 nM | –
CC1(C)CC(=O)c2c(ncn2-c2cccc(Cl)c2)C1 [C-ABK, 3-(3-Chloro-phenyl)-6,6-dimethyl-3,5,6,7-tetrahydro-benzoimidazol-4-one] | 7000 nM | 370 | 19 nM | –
CC(=O)c1ccc(-n2cnc3c2C(=O)CC(C)(C)C3)cc1 [C-ABL, 3-(4-Acetyl-phenyl)-6,6-dimethyl-3,5,6,7-tetrahydro-benzoimidazol-4-one] | 8800 nM | 150 | 59 nM | –
CC1(C)CC(=O)c2c(ncn2-c2ccc(Cl)c(F)c2)C1 [C-ABM, 3-(4-Chloro-3-fluoro-phenyl)-6,6-dimethyl-3,5,6,7-tetrahydro-benzoimidazol-4-one] | 770 nM | 160 | 4.7 nM | –
CC1(C)CC(=O)c2c(ncn2-c2ccc(Cl)cc2)C1 [C-ABN, 3-(4-Chloro-phenyl)-6,6-dimethyl-3,5,6,7-tetrahydro-benzoimidazol-4-one] | 1000 nM | 67 | 15 nM | –
CN(C)c1ccc(-n2cnc3c2C(=O)CC(C)(C)C3)cc1 [C-ABO, 3-(4-Dimethylamino-phenyl)-6,6-dimethyl-3,5,6,7-tetrahydro-benzoimidazol-4-one] | 35000 nM | 270 | 130 nM | –
CC1(C)CC(=O)c2c(ncn2-c2ccc(F)cc2)C1 [C-ABP, 3-(4-Fluoro-phenyl)-6,6-dimethyl-3,5,6,7-tetrahydro-benzoimidazol-4-one] | 1100 nM | 52 | 21 nM | –
COc1ccc(-n2cnc3c2C(=O)CC(C)(C)C3)cc1 [C-ABR, 3-(4-Methoxy-phenyl)-6,6-dimethyl-3,5,6,7-tetrahydro-benzoimidazol-4-one] | 21000 nM | 150 | 130 nM | –
